Measured values from publication PMC10154249, “Unique progerin C-terminal peptide ameliorates Hutchinson–Gilford progeria syndrome phenotype by rescuing BUBR1” (Nature Aging, 2023).
Where “and” joins values, the source holds several entries; their conditions need not be identical. Equal entries are not always repeated.

Experiments:
[1] = system: progerin–BUBR1 interaction; experiment: CoIP of progerin and BUBR1 in HEK-293T cells; format: cell-based; details: HEK-293T, Flag-progerin, UPCP 6 μM, 12 μM and 18 μM
Procedure: (§1) Detailed descriptions of CoIP were described previously[55],[56]. Cells were harvested and washed three times in cold PBS, then lysed in CoIP buffer (25 mM Tris-HCl (pH 7.5), 150 mM KCl, 5 mM EDTA, and 0.5% NP-40) plus protease inhibitor cocktail tablet (Roche). Incubate on ice and shock lysates on the vortex shaker 15 times for 30 s each. Microcentrifuge in 12,000g for 15 min at 4 °C, collect the supernatant, and incubate with 3 μg primary antibodies with gentle shaking overnight at 4 °C, followed by adding 20–40 μl Pure Proteome Protein A/G Mix Magnetic Beads (Millipore, catalog no. […]02) for 3 h. Wash the beads three times with 1 ml CoIP buffer for 8 min each, resuspend in 50 μl 1× loading buffer, and incubate at 100 °C for 8 min. Throw beads away and analyze by immunoblotting.

[2] = system: BUBR1 binding to BUB3 and CDC20; experiment: CoIP of BUBR1 and SAC proteins BUB3 and CDC20 in HEK-293T cells; format: cell-based; details: UPCP 18 μM, nocodazole 200 ng ml^–1
Procedure: as §1

[3] = system: BUBR1 in NIH-3T3-progerin cells; experiment: Western blot of BUBR1 in progerin-expressing NIH-3T3 cells; format: cell-based
Procedure: (§2) Western blot was performed as previously described. Cells were lysed in 1× Laemmli sample buffer after washing twice in cold PBS without calcium and magnesium. Protein concentrations were determined using the bicinchoninic acid (BCA) protein assay. Protein lysates were subjected to SDS–PAGE, transferred to 0.45-μm pore size hydrophobic PVDF transfer membrane (Merck Millipore), detected with the appropriate primary antibodies coupled with horseradish peroxidase-conjugated corresponding secondary antibodies, and visualized using enhanced chemiluminescence ECL reagent (GE Healthcare). The Tanon 5500 high-definition low-illumination CCD system (Tanon FLI Capture v.1.02) was used to capture chemiluminescent signals.

[4] = system: BUBR1 promoter; experiment: Luciferase assay of BUBR1 promoter in HEK-293T cells; format: cell-based; details: for Relative luciferase activity of BUBR1 promoter (UPCP/Mock): Fig. 4b, HEK293T, Mock = 1, P=0.684
Procedure: The experiments were performed as described previously. The BUBR1 (–1,200 to +100) promoter or the DNA fragment of BUBR1 mRNA 3′-UTR was inserted into the pGL4.20 vector. Cells were plated in 24-well plates. After 24 h, cells were cotransfected with 200 ng of the indicated firefly luciferase reporter plasmid and 50 ng of Renilla luciferase normalization control plasmid using PEI. At 48 h after transfection, cell lysates were collected to measure luciferase activity using the Dual-Luciferase Reporter Assay System (Promega, catalog no. E1910) according to the manufacturer’s instructions. Luciferase reporter assay was carried out on an TD-20/20 Turner Designs luminometer, data were analyzed and further processed in Microsoft Excel and GraphPad Prism v.7.

[5] = system: p53, IL-6 and p21 in HGADFN003 cells; experiment: Western blot of p53, IL-6 and p21 in HGADFN003 cells; format: cell-based, human
Procedure: as §2

[6] = system: IMR90-progerin cells; experiment: γH2AX foci in IMR90-progerin cells; format: cell-based, human; details: for γH2AX foci per cell, n>10 / γH2AX foci per cell, n≤10: IMR90-Flag-progerin+UPCP
Procedure: (§3) Immunofluorescence was performed as described previously. Cells were plated on cover slips in 12-well plates, left overnight before the treatment. Cells were fixed in 1% formaldehyde in culture medium for 10 min at 37 °C and permeabilized with 0.2% Triton X-100 in PBS for 10 min at room temperature. Cells were washed twice in PBS and blocked for 1 h with 5% BSA in PBS and then incubated with primary antibodies at 4 °C overnight, washed three times in PBS and incubated with secondary antibodies for 1 h at room temperature. Cell nuclei were counterstained with a 500 nM concentration of 4,6-diamidino-2-phenylindole (DAPI) (Sigma). Images were acquired by a fluorescence microscope (OLYMPUS FV-1000, Carl Zeiss LSM880 or Leica DMi8) and analyzed with software NIS-Elements AR v.5.0.1 (Nikon), FLUOVIEW v.4.2b (OLYMPUS), ZEN v.2.3 SP1 (Carl Zeiss) and Leica Application Suite X v.3.6.0.24 (Leica). Cells were quantified by investigators who were blinded to the identity of the analyzed cell.

[7] = system: IMR90 cells; experiment: Ki67 immunofluorescence of IMR90 cells; format: cell-based, human
Procedure: as §3

[8] = system: heart of Lmna^G609G/G609G mice; experiment: Masson staining of heart (fibrosis); format: in vivo, mouse; details: 13 weeks
Procedure: For UPCP injection, 14-day-old Lmna^G609G/G609G mice were injected intraperitoneally with either PBS or UPCP (20 mg kg^–1, every other day) and wild-type mice were injected with PBS. […] Bodyweight and lifespan were monitored after UPCP treatment. The survival rate was analyzed by the Kaplan–Meier method. We only included mice that were of sufficient bodyweight at the start of the experiment, typically at least 80% of the average littermate weight of the same sex and genotype. All animals meeting criteria for inclusion were then divided randomly into three groups according to genotype (Lmna^+/+, Lmna^G609G/G609G-Mock and Lmna^G609G/G609G-UPCP).
For histological analyses, mice of the indicated genotypes were perfused with PBS, then with 4% paraformaldehyde (PFA). Whole organs were incubated in 4% PFA at 4 °C for 16 h. All samples were paraffin embedded and sectioning by Servicebio. Subsequently, the tissues were deparaffinized and rehydrated before hematoxylin-eosin (HE) or Masson staining or immunohistochemistry (IHC). HE staining was performed using an HE Kit (Absin, catalog no. abs9217), and Masson staining was performed using Masson’s Trichrome Stain Kit (Absin, catalog no. abs9347) according to the manufacturer’s instructions. The thickness of the layers or the areas of fibrosis in the tissues were calculated using ImageJ software by a blinded investigator. For IHC, the sections were completed by the Servicebio. The images were acquired by a microscope (Leica DMi8) and analyzed with Leica Application Suite X v.3.6.0.24 (Leica). For BubR1, cytoplasmic staining in cells was scored on the intensity of staining and the proportion of positive cells by a blinded investigator. The intensity of the staining was graded as 0 (negative, no color), 1 (low positive, light yellow), 2 (positive, brown yellow) or 3 (high positive, brown), and the number of positive cells was graded as 0 (<5%), 1 (5–25%), 2 (25–50%), 3 (51–75%) or 4 (>75%). The final score was defined as staining number score multiplied by staining color score. For lamin B1, p21 or IL-6, the proportion of positive cells was used to quantify the expression of protein in tissues by a blinded investigator.

## H-YGRKKRRQRRRYNLRSRTVLCGTCGQPADKASASGSGAQSPQNCSIM-OH (cysteines drawn unpaired) [UPCP, unique progerin C-terminal peptide]
[1]
  interaction between progerin and BUBR1: interfered with the interaction between progerin and BUBR1
[2]
  binding of BUBR1 to SAC proteins (BUB3 or CDC20): did not block the binding of BUBR1 to other proteins such as PTBP1 or other SAC proteins (BUB3 or CDC20)
[3]
  BUBR1 abundance: upregulated BUBR1
[4]; replicate 1
  Relative luciferase activity of BUBR1 promoter (UPCP/Mock): 0.9458
[4]; replicate 2
  Relative luciferase activity of BUBR1 promoter (UPCP/Mock): 1.36
[4]; replicate 3
  Relative luciferase activity of BUBR1 promoter (UPCP/Mock): 0.8889
[4]; HEK-293T cells
  luciferase activity of the BUBR1 promoter: failed to enhance luciferase activity of the BUBR1 promoter
[5]
  level of p53, IL-6 and p21: decreased level of p53, IL-6 and p21
[6]; replicate 1
  γH2AX foci per cell, n>10: 75%
  γH2AX foci per cell, n≤10: 25%
[6]; replicate 2
  γH2AX foci per cell, n>10: 69%
  γH2AX foci per cell, n≤10: 31%
[6]; replicate 3
  γH2AX foci per cell, n>10: 61%
  γH2AX foci per cell, n≤10: 39%
[6]; IMR90-progerin cells
  γH2AX-53BP1 foci: lower level of γH2AX-53BP1 foci
[7]; IMR90, replicate 1
  Ki67 positive cells: 73%
[7]; IMR90, replicate 2
  Ki67 positive cells: 84%
[7]; IMR90, replicate 3
  Ki67 positive cells: 87%
[8]; 20 mg kg^–1 i.p. every other day
  fibrosis, heart: reduced fibrosis of lamina propria in the esophagus and heart
[8]; 20 mg kg^–1 i.p., replicate 1
  fibrosis area/ total area, heart: 0.003612 and 0.3612%
[8]; 20 mg kg^–1 i.p., replicate 1, total area 1.938
  fibrosis area, heart: 0.007
[8]; 20 mg kg^–1 i.p., replicate 2, total area 1.976
  fibrosis area, heart: 0.002
[8]; 20 mg kg^–1 i.p., replicate 3, total area 2.43
  fibrosis area, heart: 0.004
